# Measurements taken from patent US20140221346A1, “THERAPEUTIC COMPOUNDS” (Gilead Sciences, Inc., priority 2013, published 2014).
# What was measured:
# HIV-IIIb = test: Test A: Antiviral Assay in MT4 Cells; assay type: cell-based, HIV-1; conditions: Human immunodeficiency virus 1, IIIB, MT4, 120 h, read-out: % inhibition at 3 μM
# Description: (§1) For the antiviral assay, 40 μL of 1× test concentration of 3-fold serially diluted compound in culture medium with 10% FBS was added to each well of a 384-well plate (10 concentrations) in quadruplicate. MT-4 cells were next mixed with HIV-IIIb at an m.o.i of 0.003 for 1 hour, after which time 35 μL of virus/cell mixture (2000 cells) was immediately added to each well containing 40 μL of diluted compound. The plates were then incubated at 37° C. for 5 days. After 5 days of incubation, 25 μl of 2× concentrated CellTiter-Glo™ Reagent (catalog #G7571, Promega Biosciences, Inc., Madison, Wis.) was added to each well containing MT-4 cells. Cell lysis was carried out by incubating at room temperature for 10 min and then chemiluminescence was read.
# [1] = Test B: Cytotoxicity Assay; assay type: cell-based; conditions: human, uninfected MT-4 cells, same protocol as Test A, CellTiter-Glo
# Description: as §1
# Compound cytotoxicity and the corresponding CC50 values was determined using the same protocol as described in the antiviral assay (Test A) except that uninfected cells were used.
Compound,inhibition at 3 µM (HIV-IIIb) [%],CC50 at 5 days [1] [µM]
"CNc1ncc(-c2ccc(F)c(C(N)=O)c2)c([C@H](Cc2cc(F)cc(F)c2)NC(=O)Cn2nc(C(F)F)c3c2C(F)(F)CCC3(F)F)n1 [Compound 14B, (S)-5-(4-(1-(2-(3-(difluoromethyl)-4,4,7,7-tetrafluoro-4,5,6,7-tetrahydro-1H-indazol-1-yl)acetamido)-2-(3,5-difluorophenyl)ethyl)-2-(methylamino)pyrimidin-5-yl)-2-fluorobenzamide]",89,28.6
"NC(=O)c1cc(-c2cnc(NCCO)nc2[C@H](Cc2cc(F)cc(F)c2)NC(=O)Cn2nc(C(F)F)c3c2C(F)(F)CCC3(F)F)ccc1F [Compound 26, (S)-5-(4-(1-(2-(3-(difluoromethyl)-4,4,7,7-tetrafluoro-4,5,6,7-tetrahydro-1H-indazol-1-yl)acetamido)-2-(3,5-difluorophenyl)ethyl)-2-((2-hydroxyethyl)amino)pyrimidin-5-yl)-2-fluorobenzamide]",86,19.9
"O=C(Cn1nc(C(F)F)c2c1C(F)(F)CCC2(F)F)N[C@@H](Cc1cc(F)cc(F)c1)c1nc(-n2cncn2)ncc1-c1ccc2c(c1)C(=O)NC2 [Compound 29D, (S)-2-(3-(difluoromethyl)-4,4,7,7-tetrafluoro-4,5,6,7-tetrahydro-1H-indazol-1-yl)-N-(2-(3,5-difluorophenyl)-1-(5-(3-oxoisoindolin-5-yl)-2-(1H-1,2,4-triazol-1-yl)pyrimidin-4-yl)ethyl)acetamide]",101,40
"NC(=O)c1cc(-c2cnc(NCCN3CCOCC3)nc2[C@H](Cc2cc(F)cc(F)c2)NC(=O)Cn2nc(C(F)F)c3c2C(F)(F)CCC3(F)F)ccc1F [Compound 28, (S)-5-(4-(1-(2-(3-(difluoromethyl)-4,4,7,7-tetrafluoro-4,5,6,7-tetrahydro-1H-indazol-1-yl)acetamido)-2-(3,5-difluorophenyl)ethyl)-2-((2-morpholinoethyl)amino)pyrimidin-5-yl)-2-fluorobenzamide]",81,14.1
"Nc1ccc(-c2ccc(Cl)cc2)c(C(Cc2cc(F)cc(F)c2)NC(=O)Cc2c[nH]c3ccc(F)cc23)n1 (stereo not shown) [Compound 3, N-(1-(6-amino-3-(4-chlorophenyl)pyridin-2-yl)-2-(3,5-difluorophenyl)ethyl)-2-(5-fluoro-1H-indol-3-yl)acetamide]",87,9.34
"COc1cc(-c2ccc(N)nc2C(Cc2cc(F)cc(F)c2)NC(=O)Cc2c[nH]c3ccc(F)cc23)ccn1 (stereo not shown) [Compound 10, N-(1-(6-amino-2′-methoxy-[3,4′-bipyridin]-2-yl)-2-(3,5-difluorophenyl)ethyl)-2-(5-fluoro-1H-indol-3-yl)acetamide]",38,23.8
"Nc1ccc(-c2cccc(OCC(F)(F)F)c2)c(C(Cc2cc(F)cc(F)c2)NC(=O)Cc2c[nH]c3ccc(F)cc23)n1 (stereo not shown) [Compound 8, N-(1-(6-amino-3-(3-(2,2,2-trifluoroethoxy)phenyl)pyridin-2-yl)-2-(3,5-difluorophenyl)ethyl)-2-(5-fluoro-1H-indol-3-yl)acetamide]",50,11.7
"Nc1ccc(-c2cccc(F)c2)c(C(Cc2cc(F)cc(F)c2)NC(=O)Cc2c[nH]c3ccc(F)cc23)n1 (stereo not shown) [Compound 9, N-(1-(6-amino-3-(3-fluorophenyl)pyridin-2-yl)-2-(3,5-difluorophenyl)ethyl)-2-(5-fluoro-1H-indol-3-yl)acetamide]",41,17.5
"CN(C)c1ncc(-c2ccc(F)c(C(N)=O)c2)c([C@H](Cc2cc(F)cc(F)c2)NC(=O)Cn2nc(C(F)F)c3c2C(F)(F)CCC3(F)F)n1 [Compound 18B, (S)-5-(4-(1-(2-(3-(difluoromethyl)-4,4,7,7-tetrafluoro-4,5,6,7-tetrahydro-1H-indazol-1-yl)acetamido)-2-(3,5-difluorophenyl)ethyl)-2-(dimethylamino)pyrimidin-5-yl)-2-fluorobenzamide]",16,38.9
"NC(=O)c1cc(-c2ccc(N)nc2[C@H](Cc2cc(F)cc(F)c2)NC(=O)Cc2c[nH]c3ccc(F)cc23)ccc1F [Compound 1H, (S)-5-(6-amino-2-(2-(3,5-difluorophenyl)-1-(2-(5-fluoro-1H-indol-3-yl)acetamido)ethyl)pyridin-3-yl)-2-fluorobenzamide]",98,22.1
"NC(=O)c1cc(-c2cnc(NCCn3ccnn3)nc2[C@H](Cc2cc(F)cc(F)c2)NC(=O)Cn2nc(C(F)F)c3c2C(F)(F)CCC3(F)F)ccc1F [Compound 23F, (S)-5-(2-((2-(1H-1,2,3-triazol-1-yl)ethyl)amino)-4-(1-(2-(3-(difluoromethyl)-4,4,7,7-tetrafluoro-4,5,6,7-tetrahydro-1H-indazol-1-yl)acetamido)-2-(3,5-difluorophenyl)ethyl)pyrimidin-5-yl)-2-fluorobenzamide]",77,32.7
"Nc1ccc(-c2cccc(CO)c2)c(C(Cc2cc(F)cc(F)c2)NC(=O)Cc2c[nH]c3ccc(F)cc23)n1 (stereo not shown) [Compound 6, N-(1-(6-amino-3-(3-(hydroxymethyl)phenyl)pyridin-2-yl)-2-(3,5-difluorophenyl)ethyl)-2-(5-fluoro-1H-indol-3-yl)acetamide]",59,14.4
"CC(=O)Oc1ccc(-c2ccc(F)c(C(N)=O)c2)c([C@H](Cc2cc(F)cc(F)c2)NC(=O)Cn2nc(C(F)F)c3c2C(F)(F)CCC3(F)F)n1 [Compound 20B, (S)-5-(3-carbamoyl-4-fluorophenyl)-6-(1-(2-(3-(difluoromethyl)-4,4,7,7-tetrafluoro-4,5,6,7-tetrahydro-1H-indazol-1-yl)acetamido)-2-(3,5-difluorophenyl)ethyl)pyridin-2-yl acetate]",,> 53.2
"NC(=O)c1cccc(-c2ccc(N)nc2C(Cc2cc(F)cc(F)c2)NC(=O)Cc2c[nH]c3ccc(F)cc23)c1 (stereo not shown) [Compound 4, 3-(6-amino-2-(2-(3,5-difluorophenyl)-1-(2-(5-fluoro-1H-indol-3-yl)acetamido)ethyl)pyridin-3-yl)benzamide]",94,13.1
"NC(=O)c1cc(-c2ccc(N)nc2[C@@H](Cc2cc(F)cc(F)c2)NC(=O)Cc2c[nH]c3ccc(F)cc23)ccc1F [Compound 2, (R)-5-(6-amino-2-(2-(3,5-difluorophenyl)-1-(2-(5-fluoro-1H-indol-3-yl)acetamido)ethyl)pyridin-3-yl)-2-fluorobenzamide]",0,25.2
NC(=O)c1cc(-c2cnc(NCCN3CCCC3)nc2[C@H](Cc2cc(F)cc(F)c2)NC(=O)Cn2nc(C(F)F)c3c2C(F)(F)CCC3(F)F)ccc1F [Compound 27],,3.5
"NC(=O)c1cc(-c2cnc(NC3CCOC3)nc2[C@H](Cc2cc(F)cc(F)c2)NC(=O)Cn2nc(C(F)F)c3c2C(F)(F)CCC3(F)F)ccc1F (stereo partly drawn) [Compound 25, 5-(4-((S)-1-(2-(3-(difluoromethyl)-4,4,7,7-tetrafluoro-4,5,6,7-tetrahydro-1H-indazol-1-yl)acetamido)-2-(3,5-difluorophenyl)ethyl)-2-((tetrahydrofuran-3-yl)amino)pyrimidin-5-yl)-2-fluorobenzamide]",69,37.7
"COCCOCCNc1ncc(-c2ccc(F)c(C(N)=O)c2)c([C@H](Cc2cc(F)cc(F)c2)NC(=O)Cn2nc(C(F)F)c3c2C(F)(F)CCC3(F)F)n1 [Compound 17B, (S)-5-(4-(1-(2-(3-(difluoromethyl)-4,4,7,7-tetrafluoro-4,5,6,7-tetrahydro-1H-indazol-1-yl)acetamido)-2-(3,5-difluorophenyl)ethyl)-2-((2-(2-methoxyethoxy)ethyl)amino)pyrimidin-5-yl)-2-fluorobenzamide]",83,48.8
"NC(=O)c1cc(-c2cnc(N3CCC(O)CC3)nc2[C@H](Cc2cc(F)cc(F)c2)NC(=O)Cn2nc(C(F)F)c3c2C(F)(F)CCC3(F)F)ccc1F [Compound 21, (S)-5-(4-(1-(2-(3-(difluoromethyl)-4,4,7,7-tetrafluoro-4,5,6,7-tetrahydro-1H-indazol-1-yl)acetamido)-2-(3,5-difluorophenyl)ethyl)-2-(4-hydroxypiperidin-1-yl)pyrimidin-5-yl)-2-fluorobenzamide]",41,22.5
"NC(=O)c1cc(-c2cnc(NCCN3CCNC3=O)nc2[C@H](Cc2cc(F)cc(F)c2)NC(=O)Cn2nc(C(F)F)c3c2C(F)(F)CCC3(F)F)ccc1F [Compound 22B, (S)-5-(4-(1-(2-(3-(difluoromethyl)-4,4,7,7-tetrafluoro-4,5,6,7-tetrahydro-1H-indazol-1-yl)acetamido)-2-(3,5-difluorophenyl)ethyl)-2-((2-(2-oxoimidazolidin-1-yl)ethyl)amino)pyrimidin-5-yl)-2-fluorobenzamide]",93,34.1
"NC(=O)c1cc(-c2cnc(NCC3CC3)nc2[C@H](Cc2cc(F)cc(F)c2)NC(=O)Cn2nc(C(F)F)c3c2C(F)(F)CCC3(F)F)ccc1F [Compound 13B, (S)-5-(2-((cyclopropylmethyl)amino)-4-(1-(2-(3-(difluoromethyl)-4,4,7,7-tetrafluoro-4,5,6,7-tetrahydro-1H-indazol-1-yl)acetamido)-2-(3,5-difluorophenyl)ethyl)pyrimidin-5-yl)-2-fluorobenzamide]",42,7.72
